Source: patent US20200247897A1, “THERAPEUTIC ANTIBODIES BASED ON MUTATED IGG HEXAMERS” (GENMAB B.V., priority 2017, published 2020)
Where two headings read alike, the source gives them in different places.

Assays:
HCT 116 = assay: Drug combination screen (ATPlite, Synergy Score), HCT 116
DLD-1 = assay: Drug combination screen (ATPlite, Synergy Score), DLD-1
SW480 = assay: Drug combination screen (ATPlite, Synergy Score), SW480; assay type: cell-based, human
LS-411N = assay: Drug combination screen (ATPlite, Synergy Score), LS-411N; assay type: cell-based, human
SNU-C2B = assay: Drug combination screen (ATPlite, Synergy Score), SNU-C2B
[1] = compound in combination with IgG1-hDR5-01-G56T-E430G + IgG1-hDR5-05-E430G, HCT 116, 120 hour ATPlite, 6x6 matrix
[2] = compound in combination with IgG1-hDR5-01-G56T-E430G + IgG1-hDR5-05-E430G, DLD-1, 120 hour ATPlite, 6x6 matrix
[3] = compound in combination with IgG1-hDR5-01-G56T-E430G + IgG1-hDR5-05-E430G, SW480, 72 hour ATPlite, 6x6 matrix
[4] = compound in combination with IgG1-hDR5-01-G56T-E430G + IgG1-hDR5-05-E430G, LS-411N, 72 hour ATPlite, 6x6 matrix
[5] = compound in combination with IgG1-hDR5-01-G56T-E430G + IgG1-hDR5-05-E430G, SNU-C2B, 72 hour ATPlite, 6x6 matrix

Row | SMILES | Synergy Score HCT-116 (HCT 116; [1]) | Synergy Score DLD-1 (DLD-1; [2]) | Synergy Score SW480 (SW480; [3]) | Synergy Score LS-411N (LS-411N; [4]) | Synergy Score SNU-C2B (SNU-C2B; [5]) | Synergy Score HCT-116 (HCT 116) | Synergy Score DLD-1 (DLD-1) | Synergy Score SW480 (SW480) | Synergy Score LS-411N (LS-411N) | Synergy Score SNU-C2B (SNU-C2B)
1 | CO[C@H]1C[C@@H]2CC[C@@H](C)[C@@](O)(O2)C(=O)C(=O)N2CCCC[C@H]2C(=O)O[C@H]([C@H](C)C[C@@H]2CC[C@@H](OCCO)[C@H](OC)C2)CC(=O)[C@H](C)/C=C(\C)[C@@H](O)[C@@H](OC)C(=O)[C@H](C)C[C@H](C)/C=C/C=C/C=C/1C [Everolimus] | 0.4 | 0.4 | 1.6 | 0.3 | 3.2 |  |  |  |  | 
2 | CS(=O)(=O)c1ccc(C(=O)Nc2ccc(Cl)c(-c3ccccn3)c2)c(Cl)c1 [GDC-0449] | 0 | 0.1 | 0.1 | 0.2 | 0.3 |  |  |  |  | 
3 | OCCn1cc(-c2ccc3c(c2)CC/C3=N\O)c(-c2ccncc2)n1 [GDC-0879] | 0.2 | 0.1 | 1.6 | 0.4 | 0.7 |  |  |  |  | 
4 | CS(=O)(=O)N1CCN(Cc2cc3nc(-c4cccc5[nH]ncc45)nc(N4CCOCC4)c3s2)CC1 [GDC-0941] | 2 | 4.9 | 12.9 | 12.4 | 7.1 |  |  |  |  | 
5 | CN(C)CCCn1cc(C2=C(c3c[nH]c4ccccc34)C(=O)NC2=O)c2ccccc21 [GF 109203X] |  |  |  |  |  | 3 | 4.3 | 6.2 | 5.3 | 1.6
6 | O=C1NC(=O)/C(=C/c2ccc3nccc(-c4ccncc4)c3c2)S1 [GSK1059615] | 0.6 | 0.4 | 1.7 | 0.4 | 0.8 |  |  |  |  | 
7 | CCc1cc(Nc2nccc(-c3c(-c4ccc(OC)c(C(=O)Nc5c(F)cccc5F)c4)nc4ccccn34)n2)c(OC)cc1N1CCC(N2CCN(S(C)(=O)=O)CC2)CC1 [GSK1904529A] | 0.2 | 1.4 | 2.2 | 6 | 2.7 |  |  |  |  | 
8 | Nc1ccn([C@@H]2O[C@H](CO)[C@@H](O)C2(F)F)c(=O)n1 [Gemcitabine] | 12.2 | 20.3 | 31.1 | 5.7 | 18.5 |  |  |  |  | 
9 | Cn1c2ccccc2c2c3c(c4c5ccccc5n(CCC#N)c4c21)CNC3=O [Go 6976] | 0.9 | 2.9 | 3.1 | 1.9 | 1.7 |  |  |  |  | 
10 | CNC(=O)c1ccc(-c2cnc3ncc(Cc4ccc5ncccc5c4)n3n2)cc1F [INCB28060] | 0.1 | 0.2 | 0 | 0 | 0.4 |  |  |  |  | 
11 | C[C@H](Nc1ncnc2nc[nH]c12)c1cc2cccc(Cl)c2c(=O)n1-c1ccccc1 [IPI-145] | 0 | 0 | 0.1 | 0.2 | 1 |  |  |  |  | 
12 | COc1cc(C(=O)O)ccc1NC(=O)[C@@H]1N[C@@H](CC(C)(C)C)[C@](C#N)(c2ccc(Cl)cc2F)[C@H]1c1cccc(Cl)c1F [Idasanutlin] | 3.2 | 6.3 | 6.1 | 16.3 | 10.4 |  |  |  |  | 
13 | Cn1cc(-c2ccc3nnc(C(F)(F)c4ccc5ncccc5c4)n3n2)cn1 [JNJ-38877605] | 0 | 0.1 | 0 | 0.1 | 0.1 |  |  |  |  | 
14 | Cc1cc(NC(=O)c2cccc(NC(=O)/C=C/CN(C)C)c2)ccc1Nc1nccc(-c2cccnc2)n1 [JNK-IN-8] | 0 | 0.2 | 0.4 | 0.1 | 1.1 |  |  |  |  | 
15 | Nc1cccc2c1CN(C1CCC(=O)NC1=O)C2=O (stereo not shown) [Lenalidomide] | 0 | 0 | 0 | 0.1 | 0.2 |  |  |  |  | 
16 | COCCNCc1ccc(-c2cc3nccc(Oc4ccc(NC(=S)NC(=O)Cc5ccc(F)cc5)cc4F)c3s2)nc1 [MGCD-265] | 0.1 | 0.2 | 0.5 | 0.7 | 3.1 |  |  |  |  | 
17 | Cc1ccc(NC(=O)c2ccc(CN3CCN(C)CC3)cc2)cc1Nc1nc(-c2cccnc2)cs1 [Masitinib] | 0.3 | 0.6 | 1.9 | 1.4 | 1.7 |  |  |  |  | 
18 | C[C@H]1C[C@@H]2[C@H]([C@@H](O)C[C@@]3(C)[C@H]2CC[C@]3(O)C(=O)CO)[C@@]2(C)C=CC(=O)C=C12 [Methylprednisolone] | 0 | 0 | 0 | 0 | 0.6 |  |  |  |  | 
19 | C[C@]1(O)C[C@@H](c2nc(-c3ccc4ccc(-c5ccccc5)nc4c3)c3c(N)nccn32)C1 [OSI-906] | 0.1 | 0.5 | 3.5 | 1.7 | 1 |  |  |  |  | 
20 | COC1=CC(c2cc3ccccc3[nH]2)=N/C1=C\c1[nH]c(C)cc1C [Obatoclax] | 1.6 | 6.1 | 11.8 | 22.8 | 4.7 |  |  |  |  | 
21 | O=C(c1cc(Cc2n[nH]c(=O)c3ccccc23)ccc1F)N1CCN(C(=O)C2CC2)CC1 [Olaparib] | 1.8 | 0.7 | 1 | 2.7 | 2.5 |  |  |  |  | 
22 | C=CCc1cccc(/C=N/NC(=O)CN2CCN(Cc3ccccc3)CC2)c1O [PAC 1] | 4.2 | 10.6 | 3.9 | 2.9 | 6 |  |  |  |  | 
23 | CC(=O)Nc1nc(C)c(-c2ccc(Cl)c(S(=O)(=O)NCCO)c2)s1 [PIK-93] |  |  |  |  |  | 1.2 | 1 | 4.1 | 5.2 | 5.1
24 | CCCS(=O)(=O)Nc1ccc(F)c(C(=O)c2c[nH]c3ncc(-c4ccc(Cl)cc4)cc23)c1F [PLX-4032] | 0.1 | 0.6 | 1 | 0.6 | 0.5 |  |  |  |  | 
25 | Nc1cccc2c1C(=O)N(C1CCC(=O)NC1=O)C2=O (stereo not shown) [Pomalidomide] | 0 | 0.1 | 0 | 0 | 0.5 |  |  |  |  | 
26 | C[C@]12C=CC(=O)C=C1CC[C@@H]1[C@@H]2C(=O)C[C@@]2(C)[C@H]1CC[C@]2(O)C(=O)CO [Prednisone] | 0 | 0.1 | 0 | 0.1 | 0.2 |  |  |  |  | 
